Experimental data from ChEMBL document CHEMBL3885861, “Open TG-GATES”.

Organism: Rattus norvegicus
Test: Open TG-GATES - Regimen: Daily Repeat
Format: toxicity, organism-based, Sprague-Dawley
Design: regimen Daily Repeat, gender Male, age 6 weeks
Settings: in vivo, po, route gavage; for APTT / Bas / Eos / Fbg / Hb / Ht / Lym / MCH / MCHC / MCV / Mono / Neu / PT / Plat / RBC / Ret / WBC: tissue Blood; for KIDNEY_L / KIDNEY_R / KIDNEY_TOTAL: tissue Kidney; for LIVER: tissue Liver; for A/G / ALP / ALT / AST / BUN / CRE / Ca / Cl / DBIL / GLC / IP / K / LDH / Na / PL / RALB / TBIL / TC / TG / TP / gamma-GTP: tissue Plasma
[1] = 10 mg/kg, 72 h, dose level Middle, time 3 day
[2] = 10 mg/kg, […], dose level Middle, time 7 day
[3] = 10 mg/kg, […], dose level Middle, time 14 day
[4] = 10 mg/kg, […], dose level Middle, time 28 day
[5] = 30 mg/kg, 72 h, dose level High, time 3 day
[6] = 30 mg/kg, […], dose level High, time 7 day
[7] = 30 mg/kg, […], dose level High, time 14 day
[8] = 30 mg/kg, […], dose level High, time 28 day

CN(C)CCC(c1ccc(Cl)cc1)c1ccccn1 (centres undefined) [CHLORPHENIRAMINE]
TERMINAL_BW [1]: 226.7 g
APTT [1]: 18.1 s
Bas [1]: 0%
Eos [1]: 1.2%
Fbg [1]: 297.4 mg/dL
Hb [1]: 13.1 g/dL
Ht [1]: 40.4%
Lym [1]: 77.4%
MCH [1]: 20.7 pg
MCHC [1]: 32.3%
MCV [1]: 63.9 fL
Mono [1]: 2.6%
Neu [1]: 18.6%
PT [1]: 14.8 s
Plat [1]: 123.1 x10_4/uL
RBC [1]: 631.8 x10_4/ul
Ret [1]: 6.1%
WBC [1]: 88.3 x10_2/uL
KIDNEY_L [1]: 1 g
KIDNEY_R [1]: 0.9 g
KIDNEY_TOTAL [1]: 1.9 g
LIVER [1]: 10.2 g
A/G [1]: 0.9
ALP [1]: 1653.8 IU/L
ALT [1]: 38.8 IU/L
AST [1]: 67.8 IU/L
BUN [1]: 14.4 mg/dL
CRE [1]: 0.2 mg/dL
Ca [1]: 10.4 mg/dL
Cl [1]: 107.2 meq/L
DBIL [1]: 0.016 mg/dL
GLC [1]: 184.6 mg/dL
IP [1]: 7.4 mg/dL
K [1]: 4.5 meq/L
LDH [1]: 94.6 IU/L
Na [1]: 141.6 meq/L
PL [1]: 147.8 mg/dL
RALB [1]: 2.6 g/dL
TBIL [1]: 0.038 mg/dL
TC [1]: 82 mg/dL
TG [1]: 76.2 mg/dL
TP [1]: 5.6 g/dL
gamma-GTP [1]: 1.4 IU/L
TERMINAL_BW [2]: 266.4 g
TERMINAL_BW [3]: 329 g
TERMINAL_BW [4]: 411.3 g
APTT [2]: 22.1 s
Bas [2]: 0%
Eos [2]: 0.8%
Fbg [2]: 297.2 mg/dL
Hb [2]: 13.6 g/dL
Ht [2]: 41%
Lym [2]: 77%
MCH [2]: 20.8 pg
MCHC [2]: 33%
MCV [2]: 63.1 fL
Mono [2]: 2.2%
Neu [2]: 19.2%
PT [2]: 14.1 s
Plat [2]: 110 x10_4/uL
RBC [2]: 650.4 x10_4/ul
Ret [2]: 5.7%
WBC [2]: 82.7 x10_2/uL
APTT [3]: 16.1 s
Bas [3]: 0.2%
Eos [3]: 0.4%
Fbg [3]: 365 mg/dL
Hb [3]: 14 g/dL
Ht [3]: 42.2%
Lym [3]: 73.6%
MCH [3]: 20.3 pg
MCHC [3]: 33.1%
MCV [3]: 61.3 fL
Mono [3]: 3.4%
Neu [3]: 19.8%
PT [3]: 14.4 s
Plat [3]: 118 x10_4/uL
RBC [3]: 687.8 x10_4/ul
Ret [3]: 4.6%
WBC [3]: 91.1 x10_2/uL
APTT [4]: 18.2 s
Bas [4]: 0%
Eos [4]: 1%
Fbg [4]: 267.8 mg/dL
Hb [4]: 15.2 g/dL
Ht [4]: 45.1%
Lym [4]: 78.8%
MCH [4]: 18.9 pg
MCHC [4]: 33.8%
MCV [4]: 56 fL
Mono [4]: 2.2%
Neu [4]: 17.4%
PT [4]: 15.2 s
Plat [4]: 106.7 x10_4/uL
RBC [4]: 806.2 x10_4/ul
Ret [4]: 2.2%
WBC [4]: 92.2 x10_2/uL
KIDNEY_L [2]: 1.1 g
KIDNEY_R [2]: 1.1 g
KIDNEY_TOTAL [2]: 2.2 g
KIDNEY_L [3]: 1.3 g
KIDNEY_R [3]: 1.2 g
KIDNEY_TOTAL [3]: 2.5 g
KIDNEY_L [4]: 1.5 g
KIDNEY_R [4]: 1.4 g
KIDNEY_TOTAL [4]: 2.9 g
LIVER [2]: 12.1 g
LIVER [3]: 14.6 g
LIVER [4]: 16.2 g
A/G [2]: 0.8
ALP [2]: 1451.2 IU/L
ALT [2]: 40.6 IU/L
AST [2]: 64.4 IU/L
BUN [2]: 15.8 mg/dL
CRE [2]: 0.2 mg/dL
Ca [2]: 11.4 mg/dL
Cl [2]: 105.8 meq/L
DBIL [2]: 0.012 mg/dL
GLC [2]: 194.4 mg/dL
IP [2]: 7.6 mg/dL
K [2]: 4.2 meq/L
LDH [2]: 96.6 IU/L
Na [2]: 142.6 meq/L
PL [2]: 158.4 mg/dL
RALB [2]: 2.6 g/dL
TBIL [2]: 0.028 mg/dL
TC [2]: 84.8 mg/dL
TG [2]: 98 mg/dL
TP [2]: 5.8 g/dL
gamma-GTP [2]: 1 IU/L
A/G [3]: 0.8
ALP [3]: 1493.6 IU/L
ALT [3]: 41.6 IU/L
AST [3]: 64 IU/L
BUN [3]: 15.8 mg/dL
CRE [3]: 0.2 mg/dL
Ca [3]: 11.2 mg/dL
Cl [3]: 105.4 meq/L
DBIL [3]: 0.016 mg/dL
GLC [3]: 199.6 mg/dL
IP [3]: 7.8 mg/dL
K [3]: 4 meq/L
LDH [3]: 103 IU/L
Na [3]: 144 meq/L
PL [3]: 152.2 mg/dL
RALB [3]: 2.8 g/dL
TBIL [3]: 0.034 mg/dL
TC [3]: 78.2 mg/dL
TG [3]: 116.2 mg/dL
TP [3]: 6 g/dL
gamma-GTP [3]: 1 IU/L
A/G [4]: 0.8
ALP [4]: 1476.8 IU/L
ALT [4]: 39 IU/L
AST [4]: 67 IU/L
BUN [4]: 16.8 mg/dL
CRE [4]: 0.2 mg/dL
Ca [4]: 10.5 mg/dL
Cl [4]: 107.2 meq/L
DBIL [4]: 0.016 mg/dL
GLC [4]: 193.4 mg/dL
IP [4]: 6.2 mg/dL
K [4]: 4.1 meq/L
LDH [4]: 87.2 IU/L
Na [4]: 144.2 meq/L
PL [4]: 141 mg/dL
RALB [4]: 2.7 g/dL
TBIL [4]: 0.03 mg/dL
TC [4]: 65.6 mg/dL
TG [4]: 136.6 mg/dL
TP [4]: 6 g/dL
gamma-GTP [4]: 1 IU/L
TERMINAL_BW [5]: 205.8 g
APTT [5]: 18.2 s
Bas [5]: 0.4%
Eos [5]: 1%
Fbg [5]: 272.2 mg/dL
Hb [5]: 14.3 g/dL
Ht [5]: 43.8%
Lym [5]: 78.6%
MCH [5]: 20.4 pg
MCHC [5]: 32.5%
MCV [5]: 62.5 fL
Mono [5]: 3.2%
Neu [5]: 15.8%
PT [5]: 15.3 s
Plat [5]: 124 x10_4/uL
RBC [5]: 701 x10_4/ul
Ret [5]: 3.4%
WBC [5]: 91.9 x10_2/uL
KIDNEY_L [5]: 1 g
KIDNEY_R [5]: 0.9 g
KIDNEY_TOTAL [5]: 1.9 g
LIVER [5]: 8.8 g
A/G [5]: 0.9
ALP [5]: 1539.6 IU/L
ALT [5]: 38 IU/L
AST [5]: 67.2 IU/L
BUN [5]: 14.8 mg/dL
CRE [5]: 0.2 mg/dL
Ca [5]: 10.3 mg/dL
Cl [5]: 108.8 meq/L
DBIL [5]: 0.012 mg/dL
GLC [5]: 182.6 mg/dL
IP [5]: 7.5 mg/dL
K [5]: 4.5 meq/L
LDH [5]: 95.6 IU/L
Na [5]: 142.2 meq/L
PL [5]: 133 mg/dL
RALB [5]: 2.6 g/dL
TBIL [5]: 0.038 mg/dL
TC [5]: 74.6 mg/dL
TG [5]: 62.6 mg/dL
TP [5]: 5.5 g/dL
gamma-GTP [5]: 1.2 IU/L
TERMINAL_BW [6]: 242.7 g
TERMINAL_BW [7]: 294.5 g
TERMINAL_BW [8]: 368.6 g
APTT [6]: 19.1 s
Bas [6]: 0.4%
Eos [6]: 1%
Fbg [6]: 302.6 mg/dL
Hb [6]: 13.6 g/dL
Ht [6]: 40.9%
Lym [6]: 74%
MCH [6]: 20.5 pg
MCHC [6]: 33.3%
MCV [6]: 61.4 fL
Mono [6]: 3.2%
Neu [6]: 21.2%
PT [6]: 13.9 s
Plat [6]: 119 x10_4/uL
RBC [6]: 665.2 x10_4/ul
Ret [6]: 3.6%
WBC [6]: 121.3 x10_2/uL
APTT [7]: 17.1 s
Bas [7]: 0.2%
Eos [7]: 0.8%
Fbg [7]: 282 mg/dL
Hb [7]: 14.1 g/dL
Ht [7]: 42.4%
Lym [7]: 79.2%
MCH [7]: 19.9 pg
MCHC [7]: 33.4%
MCV [7]: 59.7 fL
Mono [7]: 2.6%
Neu [7]: 16.4%
PT [7]: 14.3 s
Plat [7]: 113.7 x10_4/uL
RBC [7]: 709 x10_4/ul
Ret [7]: 4.6%
WBC [7]: 93.8 x10_2/uL
APTT [8]: 20.7 s
Bas [8]: 0%
Eos [8]: 0.8%
Fbg [8]: 290.6 mg/dL
Hb [8]: 15.8 g/dL
Ht [8]: 46.8%
Lym [8]: 80.6%
MCH [8]: 19 pg
MCHC [8]: 33.8%
MCV [8]: 56.2 fL
Mono [8]: 2.6%
Neu [8]: 14.8%
PT [8]: 15.1 s
Plat [8]: 110.6 x10_4/uL
RBC [8]: 834 x10_4/ul
Ret [8]: 2.2%
WBC [8]: 98.8 x10_2/uL
KIDNEY_L [6]: 1 g
KIDNEY_R [6]: 1 g
KIDNEY_TOTAL [6]: 2 g
KIDNEY_L [7]: 1.1 g
KIDNEY_R [7]: 1.1 g
KIDNEY_TOTAL [7]: 2.3 g
KIDNEY_L [8]: 1.5 g
KIDNEY_R [8]: 1.4 g
KIDNEY_TOTAL [8]: 2.9 g
LIVER [6]: 10.9 g
LIVER [7]: 12.6 g
LIVER [8]: 15.6 g
A/G [6]: 0.8
ALP [6]: 1512.4 IU/L
ALT [6]: 40.6 IU/L
AST [6]: 65 IU/L
BUN [6]: 16 mg/dL
CRE [6]: 0.2 mg/dL
Ca [6]: 11.3 mg/dL
Cl [6]: 106.2 meq/L
DBIL [6]: 0.012 mg/dL
GLC [6]: 185.6 mg/dL
IP [6]: 7.6 mg/dL
K [6]: 4.4 meq/L
LDH [6]: 112.2 IU/L
Na [6]: 141.6 meq/L
PL [6]: 163.6 mg/dL
RALB [6]: 2.6 g/dL
TBIL [6]: 0.028 mg/dL
TC [6]: 86.4 mg/dL
TG [6]: 117 mg/dL
TP [6]: 5.8 g/dL
gamma-GTP [6]: 1 IU/L
A/G [7]: 0.8
ALP [7]: 1415.4 IU/L
ALT [7]: 32.8 IU/L
AST [7]: 57.8 IU/L
BUN [7]: 15.4 mg/dL
CRE [7]: 0.2 mg/dL
Ca [7]: 11.1 mg/dL
Cl [7]: 105.8 meq/L
DBIL [7]: 0.012 mg/dL
GLC [7]: 190.6 mg/dL
IP [7]: 7.6 mg/dL
K [7]: 4.6 meq/L
LDH [7]: 122.4 IU/L
Na [7]: 141.8 meq/L
PL [7]: 155.8 mg/dL
RALB [7]: 2.8 g/dL
TBIL [7]: 0.03 mg/dL
TC [7]: 82.4 mg/dL
TG [7]: 121 mg/dL
TP [7]: 6 g/dL
gamma-GTP [7]: 1 IU/L
A/G [8]: 0.8
ALP [8]: 1092.6 IU/L
ALT [8]: 34 IU/L
AST [8]: 54.6 IU/L
BUN [8]: 16 mg/dL
CRE [8]: 0.2 mg/dL
Ca [8]: 10.7 mg/dL
Cl [8]: 105.6 meq/L
DBIL [8]: 0.014 mg/dL
GLC [8]: 184 mg/dL
IP [8]: 7.1 mg/dL
K [8]: 4.4 meq/L
LDH [8]: 92.8 IU/L
Na [8]: 144.2 meq/L
PL [8]: 150.2 mg/dL
RALB [8]: 2.8 g/dL
TBIL [8]: 0.03 mg/dL
TC [8]: 75.2 mg/dL
TG [8]: 148 mg/dL
TP [8]: 6.2 g/dL
gamma-GTP [8]: 1.2 IU/L
